Entries after “also recorded” stand apart in the source; their conditions may differ.

Experiment [1] deals with MK801-treated mice. Put plainly: Prepulse inhibition test of sensorimotor gating function (MK801-disrupted PPI). The experiment is classed as in vivo. How it is done:
(§1) C57BL/6J male mice were group housed (3-5 mice per cage) with food and water available ad libitum in polysulfone ventilated cages (Alternative Design, AR, USA) in the animal rooms. The colony was maintained on a 12/12-h light/dark cycle at the temperature of 22±2° C. and all behavioral studies will be performed during the dark cycle. All animals used in this study were adult mice (at least 2.5 months of age).
The mice were randomly assigned into ten groups listed below:
Group 9: Sodium benzoate (1000 mg/kg)+MK801
Group 10: Sodium benzoate (200 mg/kg)+MK801
Group 11: Sodium benzoate (600 mg/kg)+MK801
Group 12: Sodium benzoate (200 mg/kg)+Tannic Acid (30 mg/kg)+MK801
Group 13: Sodium benzoate (200 mg/kg)+Tannic Acid (60 mg/kg)+MK801
Group 14: Sodium benzoate (600 mg/kg)+Tannic Acid (10 mg/kg)+MK801
Group 15: Sodium benzoate (600 mg/kg)+Tannic Acid (30 mg/kg)+MK801
Group 16: Sodium benzoate (600 mg/kg)+Tannic Acid (60 mg/kg)+MK801.
Each mouse in Groups 8-16 received an acute administration of MK801 dissolved in normal saline (0.1 mg/kg, i.p.) 20 minutes prior to the behavioral tests. Each mouse in Groups 9-16 received an acute administration of sodium benzoate or sodium benzoate in combination with tannic acid (dissolved in PBS, 10, 30 or 60 mg/kg) via oral gavage 20 minutes prior to the MK801 administration.
The mice were randomly assigned into five groups listed below:
Group 19: Tannic acid_10 mg/kg+MK801
Group 20: Tannic acid_30 mg/kg+MK801
Each mouse in Groups 18-21 received an acute administration of MK-801 (a NMDA receptor antagonist, dissolved in normal saline (0.1 mg/kg, i.p.) 20 minutes prior to behavioral tests. On the other hand, each mouse in Groups 19-21 received an acute administration of tannic acid (dissolved in 30% PEG400 in PBS, 10, 30 or 100 mg/kg) via oral gavage 20 minutes prior to the MK801 administration.
(§2) All mice of cohort 1 in this study were assessed with open field test as described herein. The mice of cohorts 2 and 3 in this study were assessed with prepulse inhibition test as described herein.
Prepulse inhibition was used as an index of sensorimotor gating function using SR-LAB startle apparatus (San Diego Instruments, San Diego, Calif., USA). The startle stimulus was a 40 ms, 120 dB white noise burst. In the pre-pulse (pp)+pulse trials, a 20 ms white noise pre-pulse stimuli of 82 dB (pp10) or 90 dB (pp18) was presented 100 ms before a 40 ms 120 dB pulse. The trials were presented pseudo-randomly and separated by inter-trial interval of 15 s on average (varying between 10 to 20 s) under 72 dB background noise. The percentage of pre-pulse inhibition was evaluated by the following formula: % PPI=100×[(PA score)−(pp-P score)]/(PA score), where the PA score was the average of the PA value in the middle blocks.

Experiment [2] has as its system MK801-treated mice. As to the kind of experiment: Open field test of spontaneous locomotor activity (MK801-induced hyper-locomotion). Conditions: for effect on MK801-induced hyperactivity (total distance traveled in open field test): oral gavage, cohort 1, FIG. 2. Type of experiment: in vivo. As to the method:
as §1
The mice were randomly assigned into six groups listed below:
Group 3: Sodium benzoate (1000 mg/kg)+MK801
Group 4: Sodium benzoate (200 mg/kg)+MK801 […]
Group 6: Sodium benzoate (200 mg/kg)+Tannic Acid (60 mg/kg)+MK801.
Each mouse in Groups 2-6 received an acute administration of MK801 dissolved in normal saline (0.1 mg/kg, i.p.) 20 minutes prior to the behavioral tests. […]
as §2
The open field test is a common measurement of novelty induced exploratory behavior and general activity in both mice and rats. In this study, mice were placed in a Plexiglas cage (37.5 cm×21.5 cm×18 cm) under 50-65 lux light intensity. Their spontaneous locomotor activities were measured for 60 minutes using the EthoVision video tracking system (Noldus Information Technology, the Netherlands). The travel distance of each mouse was measured as an index of locomotion activity. It generates hyperactivity which is frequently applied as animal models including, but not limited to, schizophrenia, bipolar disorder, attention-deficit hyperactivity disorder, obsessive compulsive disorder, Tourette's syndrome, autism spectrum disorders, Fragile X syndrome, Parkinson's disease, dementia with Lewy bodies, and senile dementia (see Rubia et al., 2010; Sheppard and Bradshaw, 1999; Bent et al., 2014; Powell and Miyakawa, 2006; Nestler and Hyman, 2010; Bubeni{acute over ( )}kova{acute over ( )}-Vales{hacek over ( )}ova et al., 2008; Gobira et al., 2013; Lai et al., 2014; Maio et al., 2014; Sontag et al., 2010; Ding et al., 2014; Walitza et al., 2007; Finestone et al., 1982; Golimstok et al., 2011).

Setting [3] is: MK801 0.1 mg/kg i.p., 20 minutes prior to test, model-inducing agent.

Take `C[C@]12N[C@H](Cc3ccccc31)c1ccccc12` [MK801]: in experiment [1] (setting [3]), the “effect on prepulse inhibition” value is “impairs prepulse inhibition”. In addition, the “effect on locomotion (total distance traveled in open field test)” value in experiment [2] (setting [3]) was “induced hyperactivity”.

Consider `O=C([O-])c1ccccc1.[Na+]` [sodium benzoate], for which the “effect on rescuing MK801-disrupted PPI” value in experiment [1] (sodium benzoate alone 200 mg/kg or 600 mg/kg, oral gavage, cohort 2, prepulse 82 dB and 90 dB) is on record as “did not show much effects”. For the same molecule, the “effect on MK801-impaired prepulse inhibition (percentage of pre-pulse inhibition)” value in experiment [1] (sodium benzoate alone at 200, 600 or 1000 mg/kg, FIG. 3 legend) was “can be improved”. The “effect on MK801-induced hyperactivity (total distance traveled in open field test)” value in experiment [2] (sodium benzoate 200 mg/kg alone, MK801 0.1 mg/kg i.p.) was “less effective”; in experiment [2] (sodium benzoate 1000 mg/kg alone, MK801 0.1 mg/kg i.p.), “rescued/protected mice from MK801 induced hyper-locomotion more than 200 mg/kg; also recorded: completely prevented”.

`O=C(OC[C@H]1O[C@@H](OC(=O)c2cc(O)c(O)c(OC(=O)c3cc(O)c(O)c(O)c3)c2)[C@H](OC(=O)c2cc(O)c(O)c(OC(=O)c3cc(O)c(O)c(O)c3)c2)[C@@H](OC(=O)c2cc(O)c(O)c(OC(=O)c3cc(O)c(O)c(O)c3)c2)[C@@H]1OC(=O)c1cc(O)c(O)c(OC(=O)c2cc(O)c(O)c(O)c2)c1)c1cc(O)c(O)c(OC(=O)c2cc(O)c(O)c(O)c2)c1` [tannic acid]: in experiment [1] (tannic acid alone 10, 30, 100 mg/kg, oral gavage, MK801 0.1 mg/kg i.p., cohort 3, prepulse 82 dB and 90 dB, FIG. 4), the “effect on MK801-disrupted PPI” value is “little or no effects; also recorded: little or no improvement; also recorded: little or no impact”. Further, the “effect on rescuing MK801-induced hyper-locomotion” value in experiment [2] (tannic acid alone, dose not given) is “little or no effect”.
